Results from the Kinase Knowledgebase extract (Sharma et al. 2016).

Tests used:
EGFR (human) = EGFR (human) (UniProt P00533); details: concentration not given here
CDK2 (human) = CDK2 (human) (UniProt P24941); experiment: Enzyme Assay; details: concentration not given here

Chain of EGFR (human) (P00533 whole entry, looked up): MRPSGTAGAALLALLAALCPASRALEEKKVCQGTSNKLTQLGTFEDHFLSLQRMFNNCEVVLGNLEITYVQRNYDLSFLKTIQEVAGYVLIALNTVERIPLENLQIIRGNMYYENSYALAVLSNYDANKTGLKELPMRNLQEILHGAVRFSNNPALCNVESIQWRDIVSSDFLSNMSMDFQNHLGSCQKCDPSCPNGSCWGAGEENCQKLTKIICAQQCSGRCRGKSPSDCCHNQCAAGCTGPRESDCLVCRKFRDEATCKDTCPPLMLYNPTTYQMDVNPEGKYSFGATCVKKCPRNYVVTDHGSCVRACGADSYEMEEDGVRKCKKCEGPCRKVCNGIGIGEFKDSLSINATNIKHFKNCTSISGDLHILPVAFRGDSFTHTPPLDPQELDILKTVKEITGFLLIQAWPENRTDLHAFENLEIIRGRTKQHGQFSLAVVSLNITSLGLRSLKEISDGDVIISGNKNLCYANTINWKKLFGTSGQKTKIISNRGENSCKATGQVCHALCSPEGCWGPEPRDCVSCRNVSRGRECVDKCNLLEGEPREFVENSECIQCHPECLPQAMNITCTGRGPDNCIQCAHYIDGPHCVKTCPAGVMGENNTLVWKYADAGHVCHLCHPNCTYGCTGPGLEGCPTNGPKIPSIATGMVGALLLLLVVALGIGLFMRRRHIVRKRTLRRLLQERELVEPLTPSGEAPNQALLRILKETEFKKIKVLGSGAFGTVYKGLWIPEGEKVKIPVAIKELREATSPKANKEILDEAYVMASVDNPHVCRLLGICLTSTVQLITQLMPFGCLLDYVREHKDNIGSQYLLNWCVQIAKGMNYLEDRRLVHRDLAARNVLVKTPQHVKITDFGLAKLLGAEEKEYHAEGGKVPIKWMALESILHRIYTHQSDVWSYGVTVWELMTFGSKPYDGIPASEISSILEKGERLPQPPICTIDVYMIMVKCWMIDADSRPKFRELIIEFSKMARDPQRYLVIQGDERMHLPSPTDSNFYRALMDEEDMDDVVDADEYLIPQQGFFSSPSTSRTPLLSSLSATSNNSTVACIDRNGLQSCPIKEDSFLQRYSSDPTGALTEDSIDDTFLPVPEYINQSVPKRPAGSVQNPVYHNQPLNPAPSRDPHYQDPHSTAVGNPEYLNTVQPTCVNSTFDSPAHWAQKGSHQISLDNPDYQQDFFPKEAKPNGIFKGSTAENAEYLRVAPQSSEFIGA

Row | inhibition (EGFR (human)) | inhibition (CDK2 (human)) | SMILES
1 | 3% |  | COc1ccc2[nH]c3c4c(OC)c(OC)c(OC)cc4c4c(c3c2c1)C(=O)NC4=O
2 |  | 58% | COc1cc2c3c(c4c5ccccc5n(C)c4c2c(OC)c1OC)C(=O)NC3=O
3 | 5% |  | COc1cc(C2=C(c3c(C)[nH]c4ccccc34)C(=O)NC2=O)cc(OC)c1OC
4 | 27% | 7% | COc1ccc(C2=C(c3c[nH]c4ccccc34)C(=O)NC2=O)cc1OC
